# Source: ChEMBL document CHEMBL1201862, “PubChem BioAssay data set” (2004)
#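 Method: 48-hour compound exposure of cells in 96-well plates, five concentrations, linear interpolation of endpoints. Abbreviation: GI50, concentration required for 50% inhibition of growth.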 The source made the active and inactive calls. No stated cut-off is given here; in the data, active = GI50 up to about 1.1 µM and inactive = higher.
# Legend:
# Assay in all cases: growth of human tumour cells (NCI), 48 h
# MDA-MB-231 = system: MDA-MB-231
# PC-3 = system: PC-3
# NCI-H522 = system: NCI-H522
# SK-MEL-28 = system: SK-MEL-28
# NCI/ADR-RES = system: NCI/ADR-RES
# OVCAR-4 = system: OVCAR-4
# SNB-75 = system: SNB-75
# HL-60 = system: HL-60
# SNB-19 = system: SNB-19
# MDA-N = system: MDA-N
# T47D = system: T47D
# U-251 = system: U-251
# IGROV-1 = system: IGROV-1
# ACHN = system: ACHN
# SF-268 = system: SF-268
# SK-MEL-2 = system: SK-MEL-2
# OVCAR-8 = system: OVCAR-8
# UACC-62 = system: UACC-62
# SF-295 = system: SF-295
# NCI-H23 = system: NCI-H23
Structure (SMILES),GI50 (MDA-MB-231),GI50 (PC-3),GI50 (NCI-H522),GI50 (SK-MEL-28),GI50 (NCI/ADR-RES),GI50 (OVCAR-4),GI50 (SNB-75),GI50 (HL-60),GI50 (SNB-19),GI50 (MDA-N),GI50 (T47D),GI50 (U-251),GI50 (IGROV-1),GI50 (ACHN),GI50 (SF-268),GI50 (SK-MEL-2),GI50 (OVCAR-8),GI50 (UACC-62),GI50 (SF-295),GI50 (NCI-H23)
CCOc1ccccc1/C=C(/C#N)C(N)=O,> 100 µM (inactive),> 100 µM (inactive),> 100 µM (inactive),> 100 µM (inactive),> 100 µM (inactive),> 100 µM (inactive),> 100 µM (inactive),21.6 µM (inactive),> 100 µM (inactive),18.7 µM (inactive),> 100 µM (inactive),> 100 µM (inactive),> 100 µM (inactive),> 100 µM (inactive),> 100 µM (inactive),> 100 µM (inactive),> 100 µM (inactive),96.2 µM (inactive),> 100 µM (inactive),> 100 µM (inactive)
Oc1ccc2ccccc2c1C(c1ccc(Cl)cc1)c1c(O)ccc2ccccc12,3.17 µM (inactive),2.51 µM (inactive),2.09 µM (inactive),3.87 µM (inactive),2.85 µM (inactive),3.05 µM (inactive),3.18 µM (inactive),2.34 µM (inactive),4.93 µM (inactive),3.31 µM (inactive),2.86 µM (inactive),3.43 µM (inactive),2.35 µM (inactive),3.52 µM (inactive),1.66 µM (inactive),2.4 µM (inactive),3.33 µM (inactive),3.48 µM (inactive),3.4 µM (inactive),3.78 µM (inactive)
O=C(NCCCN1CCN(CCCNC(=O)Nc2cccc3ccccc23)CC1)Nc1cccc2ccccc12,2.25 µM (inactive),9.93 µM (inactive),15.8 µM (inactive),14.4 µM (inactive),84.9 µM (inactive),25.4 µM (inactive),15.5 µM (inactive),16.3 µM (inactive),18.6 µM (inactive),15.6 µM (inactive),13.2 µM (inactive),5.46 µM (inactive),17.3 µM (inactive),16.3 µM (inactive),17.3 µM (inactive),18.7 µM (inactive),18.7 µM (inactive),3.33 µM (inactive),13.9 µM (inactive),16.2 µM (inactive)
COC(=O)/C=C1/OC(c2ccc(OC)cc2)=C(Cl)C1=O,12.3 µM (inactive),15.2 µM (inactive),14.6 µM (inactive),17.3 µM (inactive),25.8 µM (inactive),16.3 µM (inactive),17.9 µM (inactive),3.8 µM (inactive),23 µM (inactive),16.7 µM (inactive),15.3 µM (inactive),9.1 µM (inactive),16.9 µM (inactive),17.3 µM (inactive),16.6 µM (inactive),17.2 µM (inactive),12.9 µM (inactive),17.4 µM (inactive),19.9 µM (inactive),17.6 µM (inactive)
Cc1ccc2c(c1C)C(=O)C1(Cc3cc4c(cc3C1=O)CCC4)C2 (stereo not given),> 100 µM (inactive),> 100 µM (inactive),> 100 µM (inactive),> 100 µM (inactive),> 100 µM (inactive),> 100 µM (inactive),> 100 µM (inactive),> 100 µM (inactive),> 100 µM (inactive),> 100 µM (inactive),> 100 µM (inactive),> 100 µM (inactive),> 100 µM (inactive),> 100 µM (inactive),> 100 µM (inactive),> 100 µM (inactive),> 100 µM (inactive),> 100 µM (inactive),> 100 µM (inactive),> 100 µM (inactive)
CC(NC(=O)N(C)C)NC(=O)N(C)C,> 10 µM (inactive),> 10 µM (inactive),> 10 µM (inactive),> 10 µM (inactive),> 10 µM (inactive),> 10 µM (inactive),> 10 µM (inactive),> 10 µM (inactive),> 10 µM (inactive),> 10 µM (inactive),> 10 µM (inactive),> 10 µM (inactive),> 10 µM (inactive),> 10 µM (inactive),> 10 µM (inactive),> 10 µM (inactive),> 10 µM (inactive),> 10 µM (inactive),> 10 µM (inactive),> 10 µM (inactive)
CC(O)C1CC1(CO)CNc1cc(Cl)nc(N)n1 (stereo not given),> 100 µM (inactive),> 100 µM (inactive),> 100 µM (inactive),> 100 µM (inactive),> 100 µM (inactive),> 100 µM (inactive),> 100 µM (inactive),> 100 µM (inactive),> 100 µM (inactive),> 100 µM (inactive),> 100 µM (inactive),> 100 µM (inactive),> 100 µM (inactive),> 100 µM (inactive),> 100 µM (inactive),> 100 µM (inactive),> 100 µM (inactive),> 10 µM (inactive),> 100 µM (inactive),> 100 µM (inactive)
O=S(=O)(CC(O)C(Cl)(Cl)Cl)NNc1ccccc1 (stereo not given),> 100 µM (inactive),> 100 µM (inactive),> 100 µM (inactive),> 100 µM (inactive),> 100 µM (inactive),> 100 µM (inactive),> 100 µM (inactive),47.6 µM (inactive),> 100 µM (inactive),> 100 µM (inactive),81.5 µM (inactive),> 100 µM (inactive),> 100 µM (inactive),> 100 µM (inactive),> 100 µM (inactive),> 100 µM (inactive),> 100 µM (inactive),20.7 µM (inactive),80.7 µM (inactive),> 100 µM (inactive)
O=c1oc2cc(/N=C/c3ccccc3Cl)ccc2c2ccccc12,> 100 µM (inactive),98.6 µM (inactive),> 100 µM (inactive),> 100 µM (inactive),> 100 µM (inactive),> 100 µM (inactive),> 100 µM (inactive),57.1 µM (inactive),97.5 µM (inactive),> 100 µM (inactive),> 100 µM (inactive),> 100 µM (inactive),> 100 µM (inactive),> 100 µM (inactive),87.1 µM (inactive),> 100 µM (inactive),> 100 µM (inactive),40.7 µM (inactive),> 100 µM (inactive),> 100 µM (inactive)
CC(C)(C)c1ccc(O)c(Br)c1,> 100 µM (inactive),> 100 µM (inactive),> 100 µM (inactive),> 100 µM (inactive),> 100 µM (inactive),> 100 µM (inactive),15.1 µM (inactive),36.6 µM (inactive),> 100 µM (inactive),> 100 µM (inactive),11.5 µM (inactive),> 100 µM (inactive),19.1 µM (inactive),> 100 µM (inactive),> 100 µM (inactive),> 100 µM (inactive),> 100 µM (inactive),95.9 µM (inactive),> 100 µM (inactive),> 100 µM (inactive)
CC(C)=CCC/C(C)=C/CC/C(C)=C/CCN(C)CCO,10.9 µM (inactive),6.47 µM (inactive),6.61 µM (inactive),8.45 µM (inactive),12.4 µM (inactive),13.9 µM (inactive),7.43 µM (inactive),1.95 µM (inactive),8.07 µM (inactive),3.75 µM (inactive),2.78 µM (inactive),3.3 µM (inactive),2.94 µM (inactive),10.8 µM (inactive),12.2 µM (inactive),13.2 µM (inactive),11.7 µM (inactive),13.5 µM (inactive),3.61 µM (inactive),11.6 µM (inactive)
Cc1ccc(/N=N/c2c(O)ccc3cc(S(=O)(=O)O)ccc23)c(C)c1,> 100 µM (inactive),> 100 µM (inactive),> 100 µM (inactive),> 100 µM (inactive),> 100 µM (inactive),> 100 µM (inactive),> 100 µM (inactive),92.9 µM (inactive),> 100 µM (inactive),> 100 µM (inactive),> 100 µM (inactive),> 100 µM (inactive),> 100 µM (inactive),> 100 µM (inactive),> 100 µM (inactive),> 100 µM (inactive),> 100 µM (inactive),> 100 µM (inactive),> 100 µM (inactive),> 100 µM (inactive)
OCCO[P+]1(OCCO)n2c3ccc2C(c2ccccc2)=C2C=CC(=N2)C(c2ccccc2)=c2ccc(n21)=C(c1ccccc1)C1=NC(=C3c2ccccc2)C=C1,0.042 µM (active),0.0299 µM (active),0.0405 µM (active),0.0408 µM (active),3.28 µM (inactive),0.0719 µM (active),< 0.0144 µM (active),0.0152 µM (active),0.0133 µM (active),0.0344 µM (active),0.0251 µM (active),0.0152 µM (active),0.022 µM (active),0.251 µM (active),0.0263 µM (active),0.0481 µM (active),0.0767 µM (active),0.0303 µM (active),0.15 µM (active),0.0327 µM (active)
CCOC(=O)c1c2c(n3ccccc13)C(=O)c1ccccc1C2=O,> 100 µM (inactive),> 100 µM (inactive),> 100 µM (inactive),> 100 µM (inactive),> 100 µM (inactive),> 100 µM (inactive),19.5 µM (inactive),> 100 µM (inactive),80 µM (inactive),> 100 µM (inactive),> 100 µM (inactive),54.5 µM (inactive),> 100 µM (inactive),17.9 µM (inactive),31.3 µM (inactive),> 100 µM (inactive),> 100 µM (inactive),67.9 µM (inactive),> 100 µM (inactive),42.2 µM (inactive)
